{"source": "patent EP1891948A1", "about": "“Treatment of neurological and neuropsychological disorders” (Probiodrug AG, priority 2000, dated 2002)", "key": {"[1]": {"tested_on": "WistarF/Han (WF) rats", "assay": "1h and 12h food intake after combined i.c.v. treatment (Example 3)", "type": "in vivo", "details": "Fig. 8", "description": "(§1) Animals. Male WistarF/Han (WF) rats (Central Animal Laboratory, Hannover Medical School, Hannover, Germany, see http://www.mh-hannover.de/institut/tierlabor/wf.htm for details), weighing 330-370g, were housed in a sound-proof, temperature controlled (24.0±0.5°C) room under specific pathogen free conditions with a 12/12h dark/light cycle (lights on at 07.00 with illumination level of 80 Lux). Food (Altromin lab chow pellets) and tap water were available ad libitum. Under ketamine/xylasine (100/5 mg/kg, i.p.) anesthesia, the rats were fixed in a Kopf stereotaxic frame and implanted with cannulae (Plastic One, Inc., Roanoke, VA, USA) above the lateral ventricle. All research and animal care procedures were approved by the Lower Saxony district government (Hannover, Germany) and followed principles described in the European Community's Council Directive of 24 November 1986 (86/609/EEC).\nSurgery and i.c.v. application. For surgery, rats were anesthetized and prepared with i.c.v. cannulae (coordinates: A:-0.7mm caudal, L:1.4mm lateral to bregma; and V3.2mm ventral to the skull surface; tooth bar +3.0 above ear bars) using standard stereotaxic procedures as described in detail elsewhere (von Hörsten et al., 1998a,b,c). After a 7-day recovery period, successful ventricle cannulation was confirmed by an angiotensin drinking response (von Hörsten et al., 1998a). Rats showing a positive drinking response (n=59) were then habituated to experimental handling by daily sham injections for seven days.\nAnimals were randomly divided into two sets of four experimental groups (n=5-6/group), which completed different consecutive SI test of anxiety. […] The time spent in active social interaction (SI-time), 1h and 12h food-intake were measured. […]\nStatistical analysis. Data from repeated observations (food intake) were analyzed by two-way analyses of variance for repeated measures (ANOVA) (factors: \"substrain\" and \"food intake\" as repeated measure). Data obtained from simple measures such as DP IV activity or SI time were analyzed by one-way (factor: \"substrain\") ANOVA. […]"}, "[2]": {"tested_on": "WistarF/Han (WF) rats", "assay": "Social interaction (SI) test with Y1R antagonist pre-treatment (Example 4)", "type": "in vivo", "details": "i.c.v., isoleucyl thiazolidine 50nmol and/or NPY 0.8nmol, without antagonist; Fig. 10", "description": "as §1, with “330±31 g±SD,” for “330-370g,”\nSurgery and i.c.v. application. […]\nAnimals were randomly divided into eight experimental groups (n=6-8/group), which completed one SI test of anxiety: (1) aCSF+aCSF+aCSF; (2) BIBP+aCSF+aCSF; (3) aCSF+isoleucyl thiazolidine+aCSF; (4) BIBP+isoleucyl thiazolidine+aCSF; (5) aCSF+aCSF+NPY; (6) BIBP+aCSF+NPY; (7) aCSF+P32/89+NPY; (8) BIBP+isoleucyl thiazolidine+NPY. […] The time spent in active social interaction (SI-time), 1h, and 12h food-intake were measured. […]\nSocial interaction (SI) test. […] Behavior was monitored using a video camera placed above the field inside the testing/isolation box. The SI behavior of both rats was recorded on-line from a monitor placed outside on top of the box. The following parameters were scored by an observer (HPN) unaware of the substrain of rats: duration of time spent in sniffing, following, crawling under and over other rats, but not passive body contact (resting, sleeping). […]\nStatistical analysis. Data obtained from the measures SI time and 1h food intake were analyzed by one-way (factor: \"treatment\") ANOVA. […]"}}, "data": [{"smiles": "CCC(C)C(N)C(=O)N1CCSC1", "note": "(stereo not drawn) [isoleucyl thiazolidine]", "values": [{"measurement": "dose at which the 1h feeding effect reaches significance", "setting": "[1]", "value": 0.05, "unit": "nmol"}, {"measurement": "amount of food eaten within 1h", "setting": "[1]; single agents or combination, isoleucyl thiazolidine 5pmol-500nmol, NPY 50pmol-1.6nmol", "value": "mild feeding effect"}, {"measurement": "anxiolytic-like effect in the SI test (SI-time)", "setting": "[2]", "value": "acts not anxiolytic-like"}]}]}
